ChEMBL document CHEMBL3044572, “Discovery of 2-(4-cyano-3-trifluoromethylphenyl amino)-4-(4-quinazolinyloxy)-6-piperazinyl(piperidinyl)-s-triazines as potential antibacterial agents” (2012)
Values after ≈ are worked out from the molar mass of the structure shown. Active and inactive are the calls of the source. The rule behind the calls is not given here.

Columns and labels:
[1] = system: Mycobacterium tuberculosis; assay: Antimicrobial activity against Mycobacterium tuberculosis H37Rv by Lowenstein and Jensen method; format: functional; conditions: for MIC: Mycobacterium tuberculosis, H37Rv
Aspergillus clavatus = assay: Antimicrobial activity against Aspergillus clavatus MTCC 1323 at 100 ug/ml by paper disk diffusion method; format: functional, organism-based
Escherichia coli [2] = assay: Antimicrobial activity against Escherichia coli MTCC 739 at 100 ug/ml by paper-disk diffusion method; format: functional, organism-based
Candida albicans [3] = assay: Antimicrobial activity against Candida albicans MTCC 183 by paper-disk diffusion method; format: functional
[4] = system: Mycobacterium tuberculosis; assay: Antimicrobial activity against Mycobacterium tuberculosis H37Rv at 100 ug/ml by BACTEC MGIT method; format: functional, organism-based
Shigella flexneri [5] = assay: Antimicrobial activity against Shigella flexneri MTCC 1457 at 100 ug/ml by paper-disk diffusion method; format: functional, organism-based
Salmonella typhi [6] = assay: Antimicrobial activity against Salmonella enterica subsp. enterica serovar Typhi MTCC 733 at 100 ug/ml by paper disk diffusion method; format: functional, organism-based
Proteus vulgaris [7] = assay: Antimicrobial activity against Proteus vulgaris MTCC 1771 by paper disk diffusion method; format: functional
Candida albicans [8] = assay: Antimicrobial activity against Candida albicans MTCC 183 by agar streak dilution method; format: functional
Bacillus cereus [9] = assay: Antimicrobial activity against Bacillus cereus MTCC 619 at 100 ug/ml by paper disk diffusion method; format: functional, organism-based
Staphylococcus aureus [10] = assay: Antimicrobial activity against Staphylococcus aureus MTCC 96 at 100 ug/ml by paper-disk diffusion method; format: functional, organism-based
Pseudomonas aeruginosa [11] = assay: Antimicrobial activity against Pseudomonas aeruginosa MTCC 741 at 100 ug/ml by paper disk diffusion method; format: functional, organism-based
Klebsiella pneumoniae [12] = assay: Antimicrobial activity against Klebsiella pneumoniae MTCC 109 at 100 ug/ml by paper disk diffusion method; format: functional, organism-based
Proteus vulgaris [13] = assay: Antimicrobial activity against Proteus vulgaris MTCC 1771 by agar streak dilution method; format: functional
Aspergillus fumigatus [14] = assay: Antimicrobial activity against Aspergillus fumigatus MTCC 343 at 100 ug/ml by paper-disk diffusion method; format: functional, organism-based
Aspergillus niger [15] = assay: Antimicrobial activity against Aspergillus niger MTCC 282 at 100 ug/ml by paper-disk diffusion method; format: functional, organism-based
[16] = system: Mycobacterium tuberculosis; assay: Antimicrobial activity against Mycobacterium tuberculosis H37Rv by BACTEC MGIT method; format: functional; conditions: Mycobacterium tuberculosis, H37Rv
Salmonella typhi [17] = assay: Antimicrobial activity against Salmonella enterica subsp. enterica serovar Typhi MTCC 733 by paper disk diffusion method; format: functional
Aspergillus niger [18] = assay: Antimicrobial activity against Aspergillus niger MTCC 282 by paper-disk diffusion method; format: functional
Staphylococcus aureus [19] = assay: Antimicrobial activity against Staphylococcus aureus MTCC 96 by agar streak dilution method; format: functional
Salmonella typhi [20] = assay: Antimicrobial activity against Salmonella enterica subsp. enterica serovar Typhi MTCC 733 by agar streak dilution method; format: functional
Staphylococcus aureus [21] = assay: Antimicrobial activity against Staphylococcus aureus MTCC 96 by paper-disk diffusion method; format: functional
Aspergillus niger [22] = assay: Antimicrobial activity against Aspergillus niger MTCC 282 by agar streak dilution method; format: functional
Pseudomonas aeruginosa [23] = assay: Antimicrobial activity against Pseudomonas aeruginosa MTCC 741 by agar streak dilution method; format: functional
Pseudomonas aeruginosa [24] = assay: Antimicrobial activity against Pseudomonas aeruginosa MTCC 741 by paper disk diffusion method; format: functional
Bacillus cereus [25] = assay: Antimicrobial activity against Bacillus cereus MTCC 619 by agar streak dilution method; format: functional
Bacillus cereus [26] = assay: Antimicrobial activity against Bacillus cereus MTCC 619 by paper disk diffusion method; format: functional
Escherichia coli [27] = assay: Antimicrobial activity against Escherichia coli MTCC 739 by paper disk diffusion method; format: functional
Escherichia coli [28] = assay: Antimicrobial activity against Escherichia coli MTCC 739 by agar streak dilution method; format: functional
Proteus vulgaris [29] = assay: Antimicrobial activity against Proteus vulgaris MTCC 1771 at 100 ug/ml by paper disk diffusion method; format: functional, organism-based
Aspergillus fumigatus [30] = assay: Antimicrobial activity against Aspergillus fumigatus MTCC 343 by agar streak dilution method; format: functional
Aspergillus fumigatus [31] = assay: Antimicrobial activity against Aspergillus fumigatus MTCC 343 by paper-disk diffusion method; format: functional
Klebsiella pneumoniae [32] = assay: Antimicrobial activity against Klebsiella pneumoniae MTCC 109 by agar streak dilution method; format: functional
Klebsiella pneumoniae [33] = assay: Antimicrobial activity against Klebsiella pneumoniae MTCC 109 by paper disk diffusion method; format: functional
Shigella flexneri [34] = assay: Antimicrobial activity against Shigella flexneri MTCC 1457 by paper disk diffusion method; format: functional
Shigella flexneri [35] = assay: Antimicrobial activity against Shigella flexneri MTCC 1457 by agar streak dilution method; format: functional
Candida albicans [36] = assay: Antimicrobial activity against Candida albicans MTCC 183 at 100 ug/ml by paper-disk diffusion method; format: functional, organism-based

## N#Cc1ccc(Nc2nc(Oc3ncnc4ccccc34)nc(N3CCN(c4ccccc4)CC3)n2)cc1C(F)(F)F
[1]
  inhibition (percent inhibition): 94%
  MIC: 1000 µg/mL (≈ 1760 µM)
Aspergillus clavatus
  inhibition zone (IZ): inactive
Escherichia coli [2]
  inhibition zone (IZ): inactive
Candida albicans [3]
  inhibition zone (IZ): 19 mm
[4]
  inhibition: inactive
Shigella flexneri [5]
  inhibition zone (IZ): inactive
Salmonella typhi [6]
  inhibition zone (IZ): inactive
Proteus vulgaris [7]
  inhibition zone (IZ): 23 mm
Candida albicans [8]
  MIC: 100 µg/mL (≈ 176 µM)
Bacillus cereus [9]
  inhibition zone (IZ): inactive
Staphylococcus aureus [10]
  inhibition zone (IZ): inactive
Pseudomonas aeruginosa [11]
  inhibition zone (IZ): inactive
Klebsiella pneumoniae [12]
  inhibition zone (IZ): inactive
Proteus vulgaris [13]
  MIC: 50 µg/mL (≈ 87.8 µM)
Aspergillus fumigatus [14]
  inhibition zone (IZ): inactive
Aspergillus niger [15]
  inhibition zone (IZ): inactive
[16]
  MIC: > 6.25 µg/mL

## N#Cc1ccc(Nc2nc(Oc3ncnc4ccccc34)nc(N3CCCCC3)n2)cc1C(F)(F)F
Salmonella typhi [17]
  inhibition zone (IZ): 20 mm
Aspergillus niger [18]
  inhibition zone (IZ): 21 mm
[1]
  inhibition (percent inhibition): 94%
  MIC: 500 µg/mL (≈ 1020 µM)
Aspergillus clavatus
  inhibition zone (IZ): inactive
Staphylococcus aureus [19]
  MIC: 100 µg/mL (≈ 203 µM)
Salmonella typhi [20]
  MIC: 100 µg/mL (≈ 203 µM)
Escherichia coli [2]
  inhibition zone (IZ): inactive
Candida albicans [3]
  inhibition zone (IZ): 20 mm
Staphylococcus aureus [21]
  inhibition zone (IZ): 22 mm
Aspergillus niger [22]
  MIC: 100 µg/mL (≈ 203 µM)
[4]
  inhibition: inactive
Shigella flexneri [5]
  inhibition zone (IZ): inactive
Proteus vulgaris [7]
  inhibition zone (IZ): 20 mm
Candida albicans [8]
  MIC: 100 µg/mL (≈ 203 µM)
Bacillus cereus [9]
  inhibition zone (IZ): inactive
Pseudomonas aeruginosa [23]
  MIC: 100 µg/mL (≈ 203 µM)
Pseudomonas aeruginosa [24]
  inhibition zone (IZ): 22 mm
Klebsiella pneumoniae [12]
  inhibition zone (IZ): inactive
Proteus vulgaris [13]
  MIC: 100 µg/mL (≈ 203 µM)
Aspergillus fumigatus [14]
  inhibition zone (IZ): inactive
[16]
  MIC: > 6.25 µg/mL

## N#Cc1ccc(Nc2nc(Oc3ncnc4ccccc34)nc(N3CCOCC3)n2)cc1C(F)(F)F
Salmonella typhi [17]
  inhibition zone (IZ): 22 mm
Aspergillus niger [18]
  inhibition zone (IZ): 22 mm
[1]
  inhibition (percent inhibition): 98%
  MIC: 100 µg/mL (≈ 202 µM)
Aspergillus clavatus
  inhibition zone (IZ): inactive
Staphylococcus aureus [19]
  MIC: 100 µg/mL (≈ 202 µM)
Salmonella typhi [20]
  MIC: 100 µg/mL (≈ 202 µM)
Bacillus cereus [25]
  MIC: 100 µg/mL (≈ 202 µM)
Bacillus cereus [26]
  inhibition zone (IZ): 23 mm
Escherichia coli [27]
  inhibition zone (IZ): 21 mm
Candida albicans [3]
  inhibition zone (IZ): 20 mm
Staphylococcus aureus [21]
  inhibition zone (IZ): 22 mm
Aspergillus niger [22]
  MIC: 100 µg/mL (≈ 202 µM)
[4]
  inhibition: inactive
Shigella flexneri [5]
  inhibition zone (IZ): inactive
Escherichia coli [28]
  MIC: 100 µg/mL (≈ 202 µM)
Candida albicans [8]
  MIC: 100 µg/mL (≈ 202 µM)
Proteus vulgaris [29]
  inhibition zone (IZ): inactive
Pseudomonas aeruginosa [23]
  MIC: 100 µg/mL (≈ 202 µM)
Pseudomonas aeruginosa [24]
  inhibition zone (IZ): 22 mm
Klebsiella pneumoniae [12]
  inhibition zone (IZ): inactive
Aspergillus fumigatus [30]
  MIC: 100 µg/mL (≈ 202 µM)
[16]
  MIC: > 6.25 µg/mL
Aspergillus fumigatus [31]
  inhibition zone (IZ): 21 mm

## CCN1CCN(c2nc(Nc3ccc(C#N)c(C(F)(F)F)c3)nc(Oc3ncnc4ccccc34)n2)CC1
Salmonella typhi [17]
  inhibition zone (IZ): 23 mm
[1]
  inhibition (percent inhibition): 95%
  MIC: 500 µg/mL (≈ 959 µM)
Aspergillus clavatus
  inhibition zone (IZ): inactive
Staphylococcus aureus [19]
  MIC: 100 µg/mL (≈ 192 µM)
Salmonella typhi [20]
  MIC: 100 µg/mL (≈ 192 µM)
Escherichia coli [27]
  inhibition zone (IZ): 21 mm
Candida albicans [3]
  inhibition zone (IZ): 21 mm
Staphylococcus aureus [21]
  inhibition zone (IZ): 23 mm
[4]
  inhibition: inactive
Shigella flexneri [5]
  inhibition zone (IZ): inactive
Klebsiella pneumoniae [32]
  MIC: 100 µg/mL (≈ 192 µM)
Klebsiella pneumoniae [33]
  inhibition zone (IZ): 19 mm
Escherichia coli [28]
  MIC: 100 µg/mL (≈ 192 µM)
Candida albicans [8]
  MIC: 100 µg/mL (≈ 192 µM)
Proteus vulgaris [29]
  inhibition zone (IZ): inactive
Bacillus cereus [9]
  inhibition zone (IZ): inactive
Pseudomonas aeruginosa [11]
  inhibition zone (IZ): inactive
Aspergillus fumigatus [14]
  inhibition zone (IZ): inactive
Aspergillus niger [15]
  inhibition zone (IZ): inactive
[16]
  MIC: > 6.25 µg/mL

## CN1CCN(c2nc(Nc3ccc(C#N)c(C(F)(F)F)c3)nc(Oc3ncnc4ccccc34)n2)CC1
[1]
  inhibition (percent inhibition): 95%
  MIC: 250 µg/mL (≈ 493 µM)
Aspergillus clavatus
  inhibition zone (IZ): inactive
Escherichia coli [2]
  inhibition zone (IZ): inactive
Shigella flexneri [34]
  inhibition zone (IZ): 22 mm
Shigella flexneri [35]
  MIC: 100 µg/mL (≈ 197 µM)
[4]
  inhibition: inactive
Salmonella typhi [6]
  inhibition zone (IZ): inactive
Candida albicans [36]
  inhibition zone (IZ): inactive
Proteus vulgaris [29]
  inhibition zone (IZ): inactive
Bacillus cereus [9]
  inhibition zone (IZ): inactive
Staphylococcus aureus [10]
  inhibition zone (IZ): inactive
Pseudomonas aeruginosa [11]
  inhibition zone (IZ): inactive
Klebsiella pneumoniae [12]
  inhibition zone (IZ): inactive
Aspergillus fumigatus [14]
  inhibition zone (IZ): inactive
Aspergillus niger [15]
  inhibition zone (IZ): inactive
[16]
  MIC: > 6.25 µg/mL
